26 compounds from US8053435B2, “Naphthalenyloxypropenyl derivatives having inhibitory activity against histone deacetylase and pharmaceutical composition comprising the same” (Korea Research Institute of Chemical Technology, priority 2006, dated 2011) can be followed below.

SMILES strings stand for the structures. pIC50: −log10 of the molar value. Like-named read-outs stand apart in the source and are kept apart here.

As usually defined, the EC50 is the concentration that produces a half-maximal response.

For one test, the system named is HDAC. Put plainly: Inhibitory activity against HDAC (BIOMOL Quantizyme Assay system, Fluor de Lys substrate). The test is classed as biochemical. Conditions: HeLa nuclear extract as source of HDAC enzymes, enzyme reaction 1 hr; for pIC50: read-out: IC50 (HDAC inhibitory concentration). Summed up:
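HeLa nuclear extract served as HDAC source (100 nM final) with Fluor de Lys substrate, reacted 1 h. Development used Fluor de Lys developer containing 2 µM trichostatin A for 15 min at room temperature, read at ex 355/em 460 nm.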

Test [1] has as its system colon cancer cells HCT116. Put plainly: Inhibitory activity against proliferation of cancer cells, SRB (Sulforhodamine B) analysis. The class given is cell-based. Conditions: Homo sapiens, read-out: Inhibitory conc. against cancer cell growth (EC50 μM) HCT116. On the procedure:
Cancer cells were inoculated into a 96-well microplate at a concentration of 1×10^3˜3×10^3 cells/well and incubated under the condition of 37° C., 5% CO2 for 24 hrs. After the incubation was completed, 0.2, 1, 5, 25, or 100 μM of each of the compounds of Examples was added to the plate, and then the reactant was incubated for 48 hrs. After the substrate was stained with SRB, the anti-cancer activity was determined by comparing the amount of protein in the cells treated with the compound of Examples with that of protein in untreated cells.
Specifically, after the incubation was completed, the culture medium was removed from each well, and the cells were washed 3 times with PBS (pH 7.4). Then, a solution of 50% trichloroacetic acid (TCA) was added to each well in an amount of 50 μl/well at 4° C. for 1 hr to fix them. Then, the microplate was washed 5 times with distilled water and dried in air. […]
50 μl of a staining solution prepared by dissolving 0.4% SRB in 1% acetic acid was added to the wells, and the microplate was kept at room temperature for 1 hr. The well plate was then washed 5 times with 1% acetic acid to remove unbound SRB and dried in air. The stained cells were treated with 150 μl/well of 10 mM Tris-HCl solution (pH 10.5) to elute SRB from the cells, and the absorbance of the cells treated with the compounds of examples at 540 nm was measured, based on the absorbance of an untreated cell. The EC50 value representing inhibition of the cancer cell growth by the extent of 50% was calculated from the measured absorbance, and the results are shown in Table 6.

[2] abbreviates: HCT-116, Table 4, 48 hrs incubation with compound.
Setting [3] is: Table 5, formula (3) series, read-out: Inhibitory conc. (IC50, μM/ml).
The mark [4] stands for this setting: HCT-116, Table 6, 48 hrs incubation with compound.
The mark [5] stands for this setting: Table 7, formula (4) series, read-out: HDAC Inhibitory conc. (IC50, μM/ml).
Where [6] appears, read: HCT-116, Table 8, 48 hrs incubation with compound.
Setting [7] is: HCT-116, Table 2, 48 hrs incubation with compound.

Consider `O=C(CCCC/C=C(\COc1cccc2ccccc12)C(=O)NC1CCN(C2CC2)CC1)NO` [Example 2-27, (E)-N1-(1-Cyclopropylpiperidin-4-yl)-N8-hydroxy-2-((naphthalen-1-yloxy)methyl)-2-octenediamide], for which the pIC50 with HDAC (Table 3, formula (2) series) is 7.80. Also, the EC50 in test [1] (setting [2]) was 0.32 µM.
For `O=C(CCCC/C=C(/CNCCCn1ccnc1)COc1cccc2ccccc12)NO` [Example 3-4, (Z)-8-(3-(1H-Imidazol-1-yl)propylamino)-N-hydroxy-7-((naphthalen-1-yloxy)methyl)oct-6-enamide], in the test with HDAC (setting [3]), the IC50 is 0.003 µM. Further, in test [1] (setting [4]), the EC50 is 0.7 µM.
For the compound `COCC(C)NC/C(=C/c1ccc(C(=O)NO)cc1)COc1cccc2ccccc12` (stereo not shown) [Example 4-13, (Z)—N-hydroxy-4-(3-(1-methoxypropan-2-ylamino)-2-((naphthalen-1-yloxy)methyl)prop-1-enyl)benzamide], the IC50 with HDAC (setting [5]) came out at 0.005 µM. Besides, the EC50 in test [1] (setting [6]) was below 0.2 µM.
On to `CN(C)CC(C)(C)CNC(=O)/C(=C/c1ccc(C(=O)NO)cc1)COc1cccc2ccccc12` [Example 1-4], for which the pIC50 in the test on HDAC (Table 1, formula (1) series) is 7.85. For the same compound, the EC50 in test [1] (setting [7]) was 0.5 µM.
Regarding `CN(C)c1ccc(CNC/C(=C/c2ccc(C(=O)NO)cc2)COc2cccc3ccccc23)cc1` [Example 4-24], in the test with HDAC (setting [5]), the IC50 was found to be 0.011 µM. In addition, in test [1] (setting [6]), the EC50 was 0.5 µM.
As to `CCN1CCC(NC/C(=C/c2ccc(C(=O)NO)cc2)COc2cccc3ccccc23)CC1` [Example 4-1, (Z)-4-(3-(1-ethylpiperidin-4-ylamino)-2-((naphthalen-1-yloxy)methyl)prop-1-enyl)-N-hydroxybenzamide], in the test with HDAC (setting [5]), the IC50 turned out to be 0.014 µM. In addition, in test [1] (setting [6]), the EC50 worked out at 1.1 µM.
For `O=C(NO)c1ccc(/C=C(/CNCc2cccs2)COc2cccc3ccccc23)cc1` [Example 4-22, (Z)—N-hydroxy-4-(3-(naphthalen-1-yloxy)-2-((thiophen-2-ylmethylamino)methyl)prop-1-enyl)benzamide], in the test with HDAC (setting [5]), the IC50 was found to be 0.02 µM. In test [1] (setting [6]), the EC50 is 1.3 µM.
As for `COc1ccc(CCNC(=O)/C(=C/CCCCC(=O)NO)COc2cccc3ccccc23)cc1` [Example 2-16, (E)-N8-Hydroxy-N1-(4-methoxyphenethyl)-2-((naphthalen-1-yloxy)methyl)-2-octenediamide], the pIC50 in the test on HDAC (Table 3, formula (2) series) is 7.77. Further, in test [1] (setting [2]), the EC50 came out at 0.7 µM.
For `O=C(CCCC/C=C(\COc1cccc2ccccc12)C(=O)NC1CCN(C2CC2)C1)NO` (stereo not shown) [Example 2-26, (E)-N1-(1-Cyclopropylpyrrolidin-3-yl)-N8-hydroxy-2-((naphthalen-1-yloxy)methyl)-2-octenediamide], the pIC50 with HDAC (Table 3, formula (2) series) was 7.96. Moreover, the EC50 in test [1] (setting [2]) was below 0.2 µM.
In the case of `COCCNC/C(=C/c1ccc(C(=O)NO)cc1)COc1cccc2ccccc12` [Example 4-20, (Z)—N-hydroxy-4-(3-(2-methoxyethylamino)-2-((naphthalen-1-yloxy)methyl)prop-1-enyl)-benzamide], the IC50 in the test with HDAC (setting [5]) came to 0.01 µM. The EC50 in test [1] (setting [6]) is below 0.2 µM.
Turning to `O=C(CCCC/C=C(/CNCCCN1CCCC1=O)COc1cccc2ccccc12)NO` [Example 3-3, (Z)—N-Hydroxy-8-(naphthalen-1-yloxy)-7-((3-(2-oxopyrrolidin-1-yl)propylamino)methyl)oct-6-enamide], in the test on HDAC (setting [3]), the IC50 was 0.003 µM. Also, the EC50 in test [1] (setting [4]) was determined as 0.5 µM.
`COc1ccc(CNC(=O)/C(=C/CCCCC(=O)NO)COc2cccc3ccccc23)cc1` [Example 2-6, (E)-N8-Hydroxy-N1-(4-methoxybenzyl)-2-((naphthalen-1-yloxy)methyl)-2-octenediamide]: in the test with HDAC (Table 3, formula (2) series), the pIC50 is 8.30. In addition, in test [1] (setting [2]), the EC50 was 0.8 µM.
Consider `CC(C)N1CCC(NC/C(=C/c2ccc(C(=O)NO)cc2)COc2cccc3ccccc23)CC1` [Example 4-15, (Z)—N-hydroxy-4-(3-(1-isopropylpiperidin-4-ylamino)-2-((naphthalen-1-yloxy)methyl)prop-1-enyl)benzamide], for which the IC50 in the test with HDAC (setting [5]) is 0.014 µM. The EC50 in test [1] (setting [6]) is 0.4 µM.
For `O=C(CCCC/C=C(/CNCc1cccs1)COc1cccc2ccccc12)NO` [Example 3-14, (Z)—N-Hydroxy-8-(naphthalen-1-yloxy)-7-((thiophen-2-ylmethylamino)methyl)oct-6-enamide], the IC50 in the test with HDAC (setting [3]) is 0.002 µM. For the same compound, the concentration giving a half-maximal response (EC50) in test [1] (setting [4]) was determined as 0.3 µM.
With `CN(C)c1ccc(CNC(=O)/C(=C/c2ccc(C(=O)NO)cc2)COc2cccc3ccccc23)cc1` [Example 1-13, (E)-4-(3-(4-(Dimethylamino)benzylamino)-2-((naphthalen-1-yloxy)methyl)-3-oxoprop-1-enyl)-N-hydroxybenzamide], the pIC50 with HDAC (Table 1, formula (1) series) is 7.70. Further, the EC50 in test [1] (setting [7]) turned out to be 0.8 µM.
For the compound `CC(C)N1CCC(NC(=O)/C(=C/CCCCC(=O)NO)COc2cccc3ccccc23)CC1` [Example 2-30, (E)-N8-Hydroxy-N1-(1-isopropylpiperidin-4-yl)-2-((naphthalen-1-yloxy)methyl)-2-octenediamide], the pIC50 in the test with HDAC (Table 3, formula (2) series) was 7.82. In addition, the EC50 in test [1] (setting [2]) stood at 0.7 µM.
With `CN(C)CC(C)(C)CNC/C(=C/CCCCC(=O)NO)COc1cccc2ccccc12` [Example 3-7, (Z)-8-(3-(Dimethylamino)-2,2-dimethylpropylamino)-N-hydroxy-7-((naphthalen-1-yloxy)methyl)oct-6-enamide], the IC50 in the test with HDAC (setting [3]) is 0.012 µM. Besides, the EC50 in test [1] (setting [4]) was 1.2 µM.
Consider `O=C(CCCC/C=C(\COc1cccc2ccccc12)C(=O)NC1CCN(C2CCCC2)CC1)NO` [Example 2-19, (E)-N1-(1-Cyclopentylpiperidin-4-yl)-N8-hydroxy-2-((naphthalen-1-yloxy)methyl)-2-octenediamide], for which the pIC50 with HDAC (Table 3, formula (2) series) was 7.89. Further, in test [1] (setting [2]), the EC50 came to 0.8 µM.
The corresponding values for `CN(C)c1ccc(CNC(=O)/C(=C/CCCCC(=O)NO)COc2cccc3ccccc23)cc1` [Example 2-12, (E)-N1-(4-(Dimethylamino)benzyl)-N8-hydroxy-2-((naphthalen-1-yloxy)methyl)-2-octenediamide] are 8.22 and 0.5 µM.
`CN1CCC(NC(=O)/C(=C/c2ccc(C(=O)NO)cc2)COc2cccc3ccccc23)CC1` [Example 1-1, (E)-4-(3-(1-Methylpiperidin-4-ylamino)-2-((naphthalen-1-yloxy)methyl)-3-oxoprop-1-enyl)-N-hydroxybenzamide]: the pIC50 in the test on HDAC (Table 1, formula (1) series) was 8.22. The EC50 in test [1] (setting [7]) worked out at 0.54 µM.
The corresponding values for `CN1CCCC1CCNC(=O)/C(=C/c1ccc(C(=O)NO)cc1)COc1cccc2ccccc12` (stereo not shown) [Example 1-22, (E)-4-(3-(2-(1-Methylpyrrolidin-2-yl)ethylamino)-2-((naphthalen-1-yloxy)methyl)-3-oxo-1-propenyl)-N-hydroxy-benzamide] are 7.89 and 0.8 µM.
The corresponding values for `COc1ccc(CNC(=O)/C(=C/c2ccc(C(=O)NO)cc2)COc2cccc3ccccc23)cc1` [Example 1-7, (E)-4-(3-(4-Methoxybenzylamino)-2-((naphthalen-1-yloxy)methyl)-3-oxoprop-1-enyl)-N-hydroxybenzamide] are 8.00 and 0.7 µM.
In the case of `CC(C)N1CCC(NC/C(=C/CCCCC(=O)NO)COc2cccc3ccccc23)CC1` [Example 3-11, (Z)—N-Hydroxy-8-(1-isopropylpiperidin-4-ylamino)-7-((naphthalen-1-yloxy)methyl)oct-6-enamide], the IC50 with HDAC (setting [3]) amounted to 0.012 µM. In test [1] (setting [4]), the EC50 was 1.3 µM.
Consider `O=C(CCCC/C=C(\COc1ccc2ccccc2c1)C(=O)NC1CCN(C2CCCCC2)C1)NO` (stereo not shown) [Example 2-25, (E)-N1-(1-Cyclohexylpyrrolidin-3-yl)-N8-hydroxy-2-((naphthalen-2-yloxy)methyl)-2-octenediamide], for which the pIC50 with HDAC (Table 3, formula (2) series) is 8.00. Further, the EC50 in test [1] (setting [2]) came out at 0.5 µM.
As for `CCN1CCC(NC(=O)/C(=C/c2ccc(C(=O)NO)cc2)COc2cccc3ccccc23)CC1` [Example 1-17, (E)-4-(3-(1-Ethylpiperidin-4-ylamino)-2-((naphthalen-1-yloxy)methyl)-3-oxoprop-1-enyl)-N-hydroxybenzamide], in the test with HDAC (Table 1, formula (1) series), the pIC50 was 8.10. In test [1] (setting [7]), the EC50 amounted to 0.5 µM.
Regarding `O=C(CCCC/C=C(\COc1cccc2ccccc12)C(=O)NC1CCN(Cc2ccccc2)C1)NO` (stereo not shown) [Example 2-20, (E)-N1-(1-Benzylpyrrolidin-3-yl)-N8-hydroxy-2-((naphthalen-1-yloxy)methyl)-2-octenediamide], in the test on HDAC (Table 3, formula (2) series), the pIC50 is 8.15. Besides, in test [1] (setting [2]), the EC50 was 0.9 µM.
